US4208514A, “4(3H)-Oxobenzo-2,1,3-thiadiazine-2,2-dioxides” (The Dow Chemical Company, priority 1976, dated 1980)

What was measured:
Format in all cases: in vivo
Velvet Leaf [1] = test: General post-emergent herbicidal activity at 10 lbs/acre, Velvet Leaf; conditions: post-emergence, 336 h
Description: (§1) Various species of plants, both broadleaf weeds and valuable crops, were planted in beds of good agricultural soil in a greenhouse. After the plants had emerged and grown to a height of about 2-6 inches, a portion of the plants were sprayed with an aqueous mixture, made by mixing a selected active ingredient and […], […] Other portions of the plants were left untreated to serve as controls. In each test the active ingredient was a 3-methylethyl-1H-2,1,3-benzothiadiazin-4(3H)-one-2,2-dioxide having a substituent in the one position according to the invention.
(§2) After a period of 2 weeks the selective effect of the test ingredient on the plants was evaluated by a comparison with the control group of plants.

Annual Morning Glory = test: General post-emergent herbicidal activity at 10 lbs/acre, Annual Morning Glory; conditions: Ipomoea, post-emergence, 336 h
Description: as §1, §2

Nutsedge = test: General post-emergent herbicidal activity at 10 lbs/acre, Nutsedge; conditions: Cyperus, post-emergence, 336 h
Description: as §1, §2

Pig Weed = test: General post-emergent herbicidal activity at 10 lbs/acre, Pig Weed; conditions: post-emergence, 336 h
Description: as §1, §2

Soybean = test: Selective post-emergent greenhouse test, Soybean (crop injury); conditions: Glycine max, post-emergence, 336 h, 2 weeks, read-out: % Control Soybean
Description: (§3) So as to illustrate clearly the phytotoxic properties of the various active ingredients of the present invention, a group of controlled greenhouse experiments is described below.
(§4) Various species of plants, both broadleaf weeds and valuable crops, were planted in beds of good agricultural soil in a greenhouse. After the plants had emerged and grown to a height of about 2-6 inches, a portion of the plants were sprayed with an aqueous mixture, made by mixing a selected active ingredient and emulsifier or dispersant with water to provide solution containing 250 or 125 ppm active ingredient, employing sufficient amounts of the treating composition to provide low post emergent application rates of about 0.63 or 0.32 pounds per acre. Other portions of the plants were left untreated to serve as controls. In each test the active ingredient was a 3-methylethyl-1H-2,1,3-benzothiadiazin-4(3H)-one-2,2-dioxide having a substituent in the one position according to the invention.
as §2

Velvet Leaf [2] = test: Selective post-emergent greenhouse test, Velvet Leaf; conditions: post-emergence, 336 h, 2 weeks
Description: as §3, §4, §2

Cotton = test: Selective post-emergent greenhouse test, Cotton (crop injury); conditions: Gossypium hirsutum, post-emergence, 336 h, post-emergent, 2 weeks, crop, read-out: % Control Cotton
Description: as §3, §4, §2

Jimson Weed = test: Selective post-emergent greenhouse test, Jimson Weed; conditions: post-emergence, 336 h, 2 weeks
Description: as §3, §4, §2

| Structure (SMILES) | pest or weed control at 11208.5 g/ha (Velvet Leaf [1]) | pest or weed control at 11208.5 g/ha (Annual Morning Glory) | pest or weed control at 11208.5 g/ha (Nutsedge) | pest or weed control at 11208.5 g/ha (Pig Weed) | plant injury at 358.672 g/ha (Soybean; 0.32 lbs/acre) | plant injury at 706.135 g/ha (Soybean; 0.63 lbs/acre) | pest or weed control at 358.672 g/ha (Velvet Leaf [2]; 0.32 lbs/acre) | pest or weed control at 706.135 g/ha (Velvet Leaf [2]; 0.63 lbs/acre) | plant injury at 358.672 g/ha (Cotton; 0.32 lbs/acre) | plant injury at 706.135 g/ha (Cotton; 0.63 lbs/acre) | pest or weed control at 358.672 g/ha (Jimson Weed; 0.32 lbs/acre) | pest or weed control at 706.135 g/ha (Jimson Weed; 0.63 lbs/acre) |
| --- | --- | --- | --- | --- | --- | --- | --- | --- | --- | --- | --- | --- |
| CC(C)C(=O)N1c2ccccc2C(=O)N(C(C)C)S1(=O)=O [COCH(CH3)2, 1H-2,1,3-Benzothiadiazin-4 (3H)-one:3-(1-methylethyl)-1-(2- -methyl-1-oxopropyl)-2,2-dioxide] | 100% | 100% | 95% | – | – | – | – | – | – | – | – | – |
| CC(C)N1C(=O)c2ccccc2N(S(C)(=O)=O)S1(=O)=O [SO2 CH3, 1H-2,1,3-Benzothiadiazin-4(3H)-one: 3-(1-methylethyl)-1-methylsulfonyl-; 2,2-dioxide] | 100% | 100% | 20% | 100% | – | – | – | – | – | – | – | – |
| CCCS(=O)(=O)N1c2ccccc2C(=O)N(C(C)C)S1(=O)=O [SO2 CH2 CH 2 CH3, 1H-2,1,3-Benzothiadiazin-4(3H)-one: 3-(1-methylethyl)-1-propylsulfonyl-; 2,2-dioxide] | 100% | 100% | 90% | 100% | – | – | – | – | – | – | – | – |
| COCC(=O)N1c2ccccc2C(=O)N(C(C)C)S1(=O)=O [COCH2 OCH3, 1H-2,1,3-Benzothiadiazin-4(3H)-one: 1-methoxyacetyl-3-(1-methylethyl)-; 2,2-dioxide] | 100% | 100% | 90% | 100% | 0% | 0% | 80% | 100% | 0% | 0% | 100% | 100% |
| CCS(=O)(=O)N1c2ccccc2C(=O)N(C(C)C)S1(=O)=O [SO2 CH2 CH3, 1H-2,1,3-Benzothiadiazin-4(3H)-one; 1-Ethylsulfonyl-3-(1-methylethyl)-; 2,2-dioxide] | 100% | 100% | 85% | 100% | – | – | – | – | – | – | – | – |
| CCCCS(=O)(=O)N1c2ccccc2C(=O)N(C(C)C)S1(=O)=O [SO2 (CH2)3 CH3, 1H-2,1,3-Benzothiadiazin-4(3H)-one: 1-Butylsulfonyl-3-(1-methylethyl)-; 2,2-dioxide] | 100% | 100% | 85% | 100% | – | – | – | – | – | – | – | – |
| CC(C)N1C(=O)c2ccccc2N(S(=O)(=O)CCl)S1(=O)=O [SO2 CHCl, 1H-2,1,3-Benzothiadiazin-4(3H)-one: 1-chloromethylsulfonyl-3-(1-methylethyl)-; 2,2-dioxide] | 100% | 80% | 90% | 100% | – | – | – | – | – | – | – | – |
| CC(C)N1C(=O)c2ccccc2N(S(=O)(=O)C(C)C)S1(=O)=O [SO2 CH(CH3)2, 1H-2,1,3-Benzothiadiazin-4(3H)-one: 3-(1-methylethyl)-1-(1-methylethylsulfonyl)-; 2,2-dioxide] | 100% | 100% | 85% | 100% | – | – | – | – | – | – | – | – |
| CCCOC(=O)N1c2ccccc2C(=O)N(C(C)C)S1(=O)=O [CO2 CH2 CH2 CH3] | 100% | 100% | 90% | 100% | – | – | – | – | – | – | – | – |
| CCCC(C)C(=O)N1c2ccccc2C(=O)N(C(C)C)S1(=O)=O (stereo not shown) [COCH(CH3)CH2 CH2 CH3, 1H-2,1,3-Benzothiadiazin-4(3H)-one: 3-(1-methylethyl)-1-(2-methyl-1-oxopentyl)-; 2,2-dioxide] | 100% | 100% | 95% | – | – | – | – | – | – | – | – | – |
